Experimental data reported in US11878012B2, “Compositions and methods for treating traumatic brain injury” (Board of Regents, the University of Texas System, priority 2020, dated 2024).

Test system: seizure susceptibility
Test: PTZ kindling after sham or CCI-TBI
Conditions: M084 10 mg/kg s.c. 1 hour before each PTZ 35 mg/kg, from 7 days after surgery
Method: The fact that only a portion of TBI cases become susceptible to epileptic seizures is a yet unanswered phenomenon in both preclinical and clinical studies. Therefore, we investigated seizure susceptibility within the CCI-TBI model to gain a greater understanding as to the etiology of hyperexcitability spread occurring post-injury. […] In our seizure susceptibility paradigm, 1 or 7 days after experimental procedure, mice were challenged with a subconvulsant dose of PTZ (35 mg/kg s.c.) once-daily to elicit kindling epileptogenesis (FIG. 6A). The progression of motor seizure behavior was observed and timed by direct observation linked to EEG activity (FIG. 6B).
We wished to understand if the TRPC channel upregulation after TBI could be targeted to impede epileptogenic activity. […] Seizure susceptibility was standardized according to the latency to forelimb clonus lasting greater than 5 sec.
Controlled cortical impact traumatic brain injury. The controlled cortical impact (CCI) traumatic brain injury (TBI) model was applied, with a closed skull impact approach. The CCI model causes TBI, but the skull remains intact with minimal hematoma. This type of brain injury model most closely simulates the TBI experienced during blunt-head injuries from vehicular accidents or falls. Mice were anesthetized with isoflurane (3% induction, 1% maintenance) in 100% O2. Body temperature of 37° C. was maintained using a temperature-controlled heated surgical table. The skull was fixed with ear-bars into a stereotaxic frame. A small midline incision was made on the scalp using aseptic surgical techniques. Impact was delivered by cylindrical probe of 5 mm diameter with an Impact One neurotrauma impactor (Leica Biosystems). A calibrated impact was delivered at 4.5 m/sec to a depth of 1 mm and 0.5 sec dwell time to the right parietal cortex (−1.8 mm ML, +2.0 mm AP, −1.0 mm DV). […] The scalp was then sutured closed and mice were placed in a warming recirculation unit and monitored until fully awake and moving freely. […] For consistency, the left hemisphere of both sham and TBI mice is designated as “contralateral” brain, and the right hemisphere is referred to as “ipsilateral”, despite no impact injury occurring in sham mice.
In vivo electroencephalograms. To determine seizure frequency and record brain susceptibility to seizures, mice were implanted with electroencephalogram (EEG) electrodes 24 hr after sham or TBI. A three-channel tethered EEG system was used. The electrode pedestal (P1 Technologies) was secured to the skull with three anchored dental screws and connected to a preamplifier with gain of 25. The three leads were inserted over the left frontal cortex, left parietal cortex, and depth electrode lead into the hippocampus. The Stellate Harmonie acquisition hardware and software were used to collect coincident video and EEG activity. EEGs were inspected for presence of epileptiform spikes and seizures.
Seizure susceptibility assays. Pentylenetetrazol kindling model. Seizure susceptibility was tested with the GABAA receptor antagonist pentylenetetrazol (PTZ) for progression of motor seizure activity. Mice were injected with PTZ (35 mg/kg, s.c.) once per day and scored for motor behavioral seizures.

CCCCNc1nc2ccccc2[nH]1 [M084, N-butyl-1H-benzimidazol-2-amine]
days to clonic seizures: 10.6 ± 0.5 days | days to demonstrate myoclonic jerks: 7.3 ± 0.6 days | days to tonic-clonic seizure behavior: 11.0 ± 0.6 days
